The values that follow come from paper PMC12441834, “Highly Potent and Subtype-Selective Sperm-Specific Potassium Channel SLO3 Inhibitors Display High Tissue Exposure in the Murine Female Reproductive Tract” (ACS Pharmacology & Translational Science, 2025).

Like-named read-outs stand apart in the source and are kept apart here.

Data set [1] deals with T1, human SLO3 (Homo sapiens, UniProt A8MYU2).
T1 construct: expressed in transfected cells
T1 sequence (A8MYU2 1-1149): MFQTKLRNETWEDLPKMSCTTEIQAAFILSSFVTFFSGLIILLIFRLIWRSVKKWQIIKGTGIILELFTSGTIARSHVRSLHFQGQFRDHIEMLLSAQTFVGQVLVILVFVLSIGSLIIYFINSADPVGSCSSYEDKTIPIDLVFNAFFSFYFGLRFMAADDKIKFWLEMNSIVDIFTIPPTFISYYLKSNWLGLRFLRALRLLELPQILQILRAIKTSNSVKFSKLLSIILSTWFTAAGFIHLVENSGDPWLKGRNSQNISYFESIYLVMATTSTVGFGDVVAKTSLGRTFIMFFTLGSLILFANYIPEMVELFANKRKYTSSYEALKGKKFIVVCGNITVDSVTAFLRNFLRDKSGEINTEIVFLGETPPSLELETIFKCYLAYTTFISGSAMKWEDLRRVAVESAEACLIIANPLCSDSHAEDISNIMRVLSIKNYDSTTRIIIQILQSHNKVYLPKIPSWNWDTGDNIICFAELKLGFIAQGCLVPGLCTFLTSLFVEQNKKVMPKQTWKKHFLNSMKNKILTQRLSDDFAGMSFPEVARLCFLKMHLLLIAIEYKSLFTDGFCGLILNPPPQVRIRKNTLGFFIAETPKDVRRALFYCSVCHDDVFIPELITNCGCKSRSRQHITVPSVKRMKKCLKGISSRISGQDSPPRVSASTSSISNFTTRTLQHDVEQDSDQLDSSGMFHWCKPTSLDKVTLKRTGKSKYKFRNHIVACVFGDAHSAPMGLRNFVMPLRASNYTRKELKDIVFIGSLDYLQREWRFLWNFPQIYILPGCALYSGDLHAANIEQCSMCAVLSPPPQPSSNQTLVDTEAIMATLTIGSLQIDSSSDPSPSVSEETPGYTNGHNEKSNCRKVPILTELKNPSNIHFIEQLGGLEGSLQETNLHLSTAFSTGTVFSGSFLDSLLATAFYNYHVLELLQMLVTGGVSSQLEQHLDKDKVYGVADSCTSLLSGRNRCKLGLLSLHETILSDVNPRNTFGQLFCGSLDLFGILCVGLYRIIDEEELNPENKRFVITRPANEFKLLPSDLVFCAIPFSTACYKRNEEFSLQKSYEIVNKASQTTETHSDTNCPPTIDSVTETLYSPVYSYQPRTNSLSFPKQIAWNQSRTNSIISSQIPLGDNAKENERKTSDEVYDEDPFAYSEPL
T1 sequence (Q8N7C0 24-313 partner): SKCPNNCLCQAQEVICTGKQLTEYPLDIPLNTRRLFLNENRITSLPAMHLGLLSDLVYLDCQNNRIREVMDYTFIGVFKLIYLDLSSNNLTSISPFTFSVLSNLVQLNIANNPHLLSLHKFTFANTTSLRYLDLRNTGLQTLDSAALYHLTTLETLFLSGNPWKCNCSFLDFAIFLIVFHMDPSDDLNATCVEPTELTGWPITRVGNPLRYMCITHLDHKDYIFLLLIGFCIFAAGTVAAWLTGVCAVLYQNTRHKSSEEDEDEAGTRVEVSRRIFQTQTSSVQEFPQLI
The data set can be described thus: SLO3 patch-clamp electrophysiology, human SLO3-γ2 expressed in HEK293 cells. The settings on record: transfected HEK293 cells (human SLO3-γ2), whole-cell patch clamp, currents at +100 mV; read-out: hSLO3 IC50. It counts as cell-based. On the procedure: (§1) HEK293 cells were transfected with the bicistronic vector pBUD-CE4.1 containing the genes of interest and a gene conferring antibiotic resistance. Cells were exposed to gradients of selection antibiotics, and optimal growth conditions for the stable lines were as follows: SLO3 and γ2 (SLO3-γ2) supplemented with 700 μg/mL Zeocin (Invitrogen); human SLO1 and β1 (SLO1-β1) with 1 mg/mL G418 (Sigma) and 3 μg/mL puromycin (Corning, Thermo Fisher); and human SLO1 and β4 (SLO1-β4) with 250 μg/mL Zeocin and 3 μg/mL puromycin. All cell lines were grown in Dulbecco’s Modified Eagle Medium (Gibco, Thermo Fisher) supplemented with 10% fetal bovine serum, 1% penicillin–streptomycin (Millipore Sigma), and selection antibiotics. To generate cells expressing SLO1 and γ2, stable SLO1-expressing HEK293 cells were transiently transfected with expression vectors for γ2 and green fluorescent protein (GFP) in the presence of lipofectamine (Invitrogen) for 5 h.
(§2) The cells were then washed and incubated in supplemented Dulbecco’s Modified Eagle Medium for 48 h before use. Patch-clamp electrophysiology was performed only on cells expressing GFP.
(§3) Currents in HEK293 cells were measured in the whole-cell patch-clamp configuration with an Axopatch 200B amplifier, digitized with a Digidata 1440A, and interfaced with Clampex 10.6.0.13 (Molecular Devices). […] An isolated cell was located on an Axiovert 200 microscope (Zeiss), and a gigaohm seal was formed with a borosilicate pipette with resistance between 3 and 6 MΩ and filled with internal solution (140 mM KMeSO3, 10 mM HEPES, 10 mM MES, 1 mM EGTA, pH 7). The seal was then broken by applying a negative pressure. Cells were kept at a holding potential of −60 mV for 50 ms, tested with a stepped voltage protocol from −80 to +150 mV in 10 mV increments for 100 ms, and then dropped to −40 mV for 50 ms with 2.5 s between sweeps. This protocol was used to record currents present with increasing concentration of our compound of interest or 3 μL/mL vehicle (DMSO) in the bath solution. Individual cells were tested with between 1 and 5 concentrations of the compound of interest or until the patch was lost. Currents were allowed to stabilize before the initial recording and after the perfusion solution was changed before recording.
Data were analyzed with a pClamp 10.6 (Molecular Devices). VU6047606 and VU6032735 inhibition dose–response relationships were fit by the Hill equation in OriginPro 7.5 (OriginLab Corporation): R=1/1+(C/IC50)^n+Ioff , in which R is fractional unblock, C is compound concentration, IC50 is the half inhibition concentration, n is the Hill coefficient, and I off is an offset item for leak current. Error bars in the figures represent the SDs. Each data point is averaged from at least 5 measurements. Curve-fitting results are reported as the fitted values with standard error, which was estimated by OriginPro according to the Error Propagation formula.

The target of data set [2] is T2, hERG (Homo sapiens, UniProt Q12809).
T2 construct: expressed in transfected cells
The data set can be described thus: hERG patch clamp electrophysiology (HEK-293-hERG). The format is cell-based. The settings on record: for selectivity ratio: human, HEK-293 cells stably expressing hERG, pH 7.35, hERG IC50 / hSLO3 IC50, read-out: hERG selectivity [fold] (SLO3 versus hERG); for IC50: whole-cell patch clamp, HEK-293-hERG. On the procedure: Whole-cell patch-clamp electrophysiology was used to record hERG currents from a stably transfected monoclonal cell line expressing human hERG. The HEK-293-hERG cell line was generously provided by Dr. David Weaver (Vanderbilt University). Cells were cultured in a 5% CO2 incubator at 37 °C, dissociated with 0.25% Trypsin-EDTA, and seeded onto 12 mm circular coverslips (Electron Microscopy Sciences, PA, USA) for same-day whole-cell patch-clamp recordings. hERG currents were recorded at room temperature by using an AxoPatch 200B amplifier with Clampex 10.7 software (Molecular Devices, USA). The voltage-clamp protocol consisted of a 4-s step to +30 mV from a −80 mV holding potential, followed by a 4-s step to −40 mV, repeated every 10 s. Data were sampled at 5 kHz and filtered at 1 kHz. Patch pipettes, pulled from 1.5 mm OD thin-walled capillaries (Warner Instruments, MA, USA) using a Sutter P-1000 puller (Sutter Instrument, CA, USA), had resistances of 2–3 MΩ when filled with intracellular solution containing (mM): 135 KCl, 10 HEPES, 1 EGTA, 2 MgCl2, 2 Na2ATP (pH 7.35, adjusted with KOH). The extracellular solution contained (mM): 135 NaCl, 5 KCl, 2 CaCl2, 1 MgCl2, 5 Glucose, 10 HEPES, and 10 Sucrose (pH 7.35, adjusted with NaOH). After establishing stable baseline hERG currents, cells were perfused with compounds at concentrations of 0.03–30 μM until response saturation (typically 2–8 min). Recordings concluded with a 10 μM Quinidine solution to isolate Quinidine-sensitive currents, with compound responses expressed as fractions of this current. Peak “tail” current amplitudes at the beginning of −40 mV steps were analyzed using Clampfit 11.2 (Molecular Devices). IC50 values were calculated by fitting the Hill equation to concentration–response curves (CRCs) using the built-in Y = Bottom + (Top – Bottom)/(1 + (IC50/X)^HillSlope) model (nonlinear regression fit: [Inhibitor] vs response – Variable slope (four parameters)) in GraphPad Prism 10.4 (GraphPad Software).

In data set [3] the target is T3, hSLO1 (Homo sapiens, UniProt Q12791).
T3 construct: expressed in transfected cells; host or cells: HEK293
The data set can be described thus: SLO1 inhibition in HEK cells. It counts as cell-based. To be noted: for SLO1 selectivity (fold selective for SLO3): SLO1 IC50 / hSLO3 IC50. On the procedure:
as §1, §2, §3

In data set [4] the target is T2, hERG. The arrangement: method as in PMID 36649421. To be noted: cited from earlier work.
For data set [5], the target named is T3, hSLO1. Further details: method as in PMID 36649421. To be noted: cited from earlier work.
Data set [6] has as its target T1, human SLO3. Further details: method as in PMID 36649421. To be noted: earlier work of the Santi Lab; cited from earlier work.

T3 sequence (Q12791 whole entry): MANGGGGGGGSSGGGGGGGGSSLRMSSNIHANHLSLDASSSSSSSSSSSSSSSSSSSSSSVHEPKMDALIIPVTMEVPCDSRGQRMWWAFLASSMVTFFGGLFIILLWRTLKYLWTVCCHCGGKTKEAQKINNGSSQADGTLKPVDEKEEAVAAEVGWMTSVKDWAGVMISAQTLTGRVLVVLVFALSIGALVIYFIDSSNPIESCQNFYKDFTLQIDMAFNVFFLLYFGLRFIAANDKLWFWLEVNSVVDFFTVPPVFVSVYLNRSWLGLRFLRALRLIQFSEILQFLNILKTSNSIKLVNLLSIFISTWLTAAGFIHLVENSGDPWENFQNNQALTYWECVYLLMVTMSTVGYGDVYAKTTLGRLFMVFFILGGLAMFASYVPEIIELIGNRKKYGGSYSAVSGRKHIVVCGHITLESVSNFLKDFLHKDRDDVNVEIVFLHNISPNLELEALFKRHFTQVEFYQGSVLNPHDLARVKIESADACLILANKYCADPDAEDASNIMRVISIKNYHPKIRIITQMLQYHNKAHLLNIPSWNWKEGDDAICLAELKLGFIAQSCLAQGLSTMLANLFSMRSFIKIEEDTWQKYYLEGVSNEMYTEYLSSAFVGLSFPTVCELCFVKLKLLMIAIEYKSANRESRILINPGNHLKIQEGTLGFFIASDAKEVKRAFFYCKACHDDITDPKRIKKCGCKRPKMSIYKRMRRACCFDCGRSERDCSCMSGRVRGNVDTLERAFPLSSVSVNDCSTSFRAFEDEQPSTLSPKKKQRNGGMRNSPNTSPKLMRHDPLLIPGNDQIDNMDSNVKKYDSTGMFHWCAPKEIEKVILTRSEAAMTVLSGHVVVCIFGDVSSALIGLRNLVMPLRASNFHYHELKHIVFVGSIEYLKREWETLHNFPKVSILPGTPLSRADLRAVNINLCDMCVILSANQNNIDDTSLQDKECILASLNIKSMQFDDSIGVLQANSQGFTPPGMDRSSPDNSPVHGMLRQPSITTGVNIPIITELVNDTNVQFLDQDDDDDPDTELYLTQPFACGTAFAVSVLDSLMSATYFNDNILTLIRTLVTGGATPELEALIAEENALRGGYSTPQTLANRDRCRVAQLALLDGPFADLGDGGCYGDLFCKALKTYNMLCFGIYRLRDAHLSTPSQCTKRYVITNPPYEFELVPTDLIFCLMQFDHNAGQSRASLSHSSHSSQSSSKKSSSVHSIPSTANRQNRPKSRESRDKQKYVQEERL
T2 sequence (Q12809 whole entry): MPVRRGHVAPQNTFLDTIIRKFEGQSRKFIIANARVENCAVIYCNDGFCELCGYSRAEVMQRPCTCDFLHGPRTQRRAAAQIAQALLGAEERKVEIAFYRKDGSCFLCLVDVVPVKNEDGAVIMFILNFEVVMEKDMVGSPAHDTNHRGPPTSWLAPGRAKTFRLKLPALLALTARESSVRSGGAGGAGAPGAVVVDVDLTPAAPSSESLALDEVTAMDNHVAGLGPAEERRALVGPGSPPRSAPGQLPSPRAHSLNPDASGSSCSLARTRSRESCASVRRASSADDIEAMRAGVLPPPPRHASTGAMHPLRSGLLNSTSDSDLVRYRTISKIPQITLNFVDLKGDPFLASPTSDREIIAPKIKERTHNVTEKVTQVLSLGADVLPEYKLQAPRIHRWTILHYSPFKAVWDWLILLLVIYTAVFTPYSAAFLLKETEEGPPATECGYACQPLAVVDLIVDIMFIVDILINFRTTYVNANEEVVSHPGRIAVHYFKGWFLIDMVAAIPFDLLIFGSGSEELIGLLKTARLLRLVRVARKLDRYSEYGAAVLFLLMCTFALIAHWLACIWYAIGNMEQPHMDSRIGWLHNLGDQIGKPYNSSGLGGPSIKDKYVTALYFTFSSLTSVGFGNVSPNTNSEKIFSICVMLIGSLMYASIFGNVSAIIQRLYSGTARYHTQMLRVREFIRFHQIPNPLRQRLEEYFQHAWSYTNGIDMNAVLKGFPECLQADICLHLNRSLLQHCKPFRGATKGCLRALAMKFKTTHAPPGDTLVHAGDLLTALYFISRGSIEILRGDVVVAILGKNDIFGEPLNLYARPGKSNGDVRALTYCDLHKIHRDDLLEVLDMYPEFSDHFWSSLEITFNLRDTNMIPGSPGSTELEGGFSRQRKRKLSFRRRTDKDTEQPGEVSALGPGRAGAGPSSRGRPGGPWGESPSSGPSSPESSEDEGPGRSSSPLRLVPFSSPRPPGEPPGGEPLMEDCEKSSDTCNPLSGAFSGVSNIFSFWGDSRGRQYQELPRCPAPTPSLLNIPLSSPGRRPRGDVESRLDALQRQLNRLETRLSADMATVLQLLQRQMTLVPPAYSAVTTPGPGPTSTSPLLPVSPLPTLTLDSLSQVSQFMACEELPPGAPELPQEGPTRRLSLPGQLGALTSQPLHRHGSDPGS

As for `O=C(CCCS(=O)(=O)c1ccc(Cl)cc1)N1CCC(Oc2nc3ccccc3s2)CC1` [VU0528254], the IC50 on human SLO3 [1] came out at 223 nM. In addition, at hERG [2], the selectivity ratio is 4.2 and the IC50 stood at 928 nM. Moreover, on hSLO1 [3], it took 34000 nM to reach half-maximal inhibition (IC50) and the “SLO1 selectivity (fold selective for SLO3)” value came out at 153 fold.
For the compound `O=C(c1ccc(OCc2nc(C3CC3)cs2)cc1)N1CCN(c2ccc(C(F)(F)F)cn2)CC1` [VU0530373], on human SLO3 [1], the IC50 was 445 nM. In addition, on hERG [2], the selectivity ratio was 1.1 and the IC50 came out at 511 nM. In addition, on hSLO1 [3], it took 6380 nM to reach half-maximal inhibition (IC50) and the “SLO1 selectivity (fold selective for SLO3)” value came to 14 fold.
For the compound `COc1ccc(SCC2CCN(C(=O)Cc3ccc(S(=O)(=O)C(C)C)cc3)CC2)cc1` [VU0546110], the “selectivity for SLO3 over hERG” value on hERG [4] is 1.5 fold. Also, the “selectivity for SLO3 over SLO1” value at hSLO1 [5] is 46 fold. Also, on human SLO3 [6], the IC50 is 1290 nM.
